Read-outs that look alike come from different tables or passages of the source.
How the values were obtained:
in vitro [1] = conditions: human
HCoV-229E = assay: microbe, parasite or virus in culture; type: cell-based, Homo sapiens sapiens; conditions: Human coronavirus 229E
in vitro [2] = assay: in vitro
[3] = Calu-3 cells, immunofluorescence imaging
[4] = Huh7.5, read-out: IC50 (µM), HCoV 229E
[5] = Huh-7.5/F-Luc cells, maximum tested dose 5 µM
[6] = Anti-SARS-CoV-2 screening on Calu-3 cells: viability [% of control], Calu-3 cells

SMILES | viability at 5 µM (in vitro [1]) | Anti-SARS-CoV-2 screening on Calu-3 cells: intracellular SARS-CoV-2 infection measured via immunofluorescence imaging [% of control] (SARS-CoV-2) | IC50 (HCoV-229E; Huh7.5, read-out: IC50 (µM), HCoV 229E, HCoV-229E/R-Luc on Huh-7.5/F-Luc cells, dose series, max. dose 5 µM) | CC50 (µM) (Huh-7.5/F-Luc cells) | viability (in vitro [2]; Anti-SARS-CoV-2 screening on Calu-3 cells: viability [% of control]) | Anti-SARS-CoV-2 screening on Calu-3 cells: intracellular SARS-CoV-2 infection measured via immunofluorescence imaging [% of control] (SARS-CoV-2; [3]) | IC50 (HCoV-229E; [4]) | CC50 (µM) (Huh-7.5/F-Luc cells; [5]) | viability (in vitro [2]; [6]) | viability at 48 h, 5 µM (in vitro [2]) | viability (in vitro [2])
CNCCC(Oc1cccc2ccccc12)c1cccs1 (stereo not shown) [RFM-000-319-0] | 143% | 109.17 % of control | 1.44 µM | greater than maximum tested dose | 104% | – | – | – | – | – | –
Cc1ccc([C@@H](CCNCC2CCCCC2)[C@@H]2CCOC(C)(C)C2)cc1F [RFM-013-052-9] | 119% | – | – | – | – | 121.52 % of control | 1.8 µM | greater than maximum tested dose | 102% | – | –
CN1C[C@H](CNC(=O)OCc2ccccc2)C[C@@H]2c3cccc4c3c(cn4C)C[C@H]21 [RFM-005-941-6] | 163% | – | – | – | – | 125.57 % of control | 1.26 µM | greater than maximum tested dose | – | 117% | –
CNc1cc(OC)c(C(=O)N[C@@H]2CCN(Cc3ccccc3)[C@@H]2C)cc1Cl [RFM-000-360-1] | 134% | – | – | – | – | 103.45 % of control | 2.36 µM | greater than maximum tested dose | – | – | 109%
CC(=O)N(C)C1(c2ccccc2)CCN(CCC[C@]2(c3ccc(Cl)c(Cl)c3)CCCN(C(=O)c3ccccc3)C2)CC1 [RFM-000-080-6] | 131% | – | – | – | – | 106.27 % of control | 1.5 µM | greater than maximum tested dose | 113% | – | –
CC(C)C(=O)c1ccc(OCCCN2CCC(C(O)(c3ccc(F)cc3)c3ccc(F)cc3)CC2)cc1 [RFM-010-056-1] | 119% | – | – | – | – | 122.17 % of control | 1.47 µM | greater than maximum tested dose | 93.4% | – | –
CC(C)NCC(O)COc1ccc(CC(=O)OCCC23CC4CC(CC(C4)C2)C3)cc1 (stereo not shown) [RFM-010-929-5] | 122% | – | – | – | – | 113.56 % of control | 1.76 µM | greater than maximum tested dose | 90.2% | – | –
C[C@@H]1CCCN1CCc1cc2cc(-c3ccc(C#N)cc3)ccc2o1 [RFM-000-099-7] | 152% | – | – | – | – | 114.07 % of control | 1.39 µM | greater than maximum tested dose | 98.3% | – | –
CN(C)CCCN1c2ccccc2Sc2ccc(C(F)(F)F)cc21 [RFM-004-217-1] | 159% | 110.23 % of control | – | greater than maximum tested dose | – | – | 1.19 µM | – | – | 72.7% | –
COCCN1CCC(N(Cc2ccc(-c3ccc(C(F)(F)F)cc3)cc2)C(=O)c2ccco2)CC1 [RFM-012-120-0] | 130% | – | – | – | – | 87.75 % of control | 1.61 µM | greater than maximum tested dose | 94.4% | – | –
CN[C@@H](CC(C)C)C(=O)NCCCC(c1ccc(F)cc1)c1ccc(F)cc1 [RFM-010-013-0] | 136% | – | – | – | – | 111.66 % of control | 2.77 µM | greater than maximum tested dose | 99.2% | – | –
CCc1ccc2c(c1)N(CC(C)CN(C)C)c1ccccc1S2 (stereo not shown) [RFM-012-636-3] | 138% | – | – | – | – | 133.66 % of control | 1.71 µM | greater than maximum tested dose | – | 108% | –
Oc1ccc2c(c1)OC[C@@H](c1ccccc1)[C@H]2c1ccc(OCCN2CCCC2)cc1 [RFM-011-457-8] | 144% | – | – | – | – | 113.89 % of control | 1.5 µM | greater than maximum tested dose | 101% | – | –
CCCN(CCC)C(=O)C(Cc1ccc(OCCCN2CCN(C)CC2)cc1)NC(=O)c1ccc(Br)cc1 (stereo not shown) [RFM-012-167-5] | 141% | – | – | – | – | 114.35 % of control | 2.36 µM | greater than maximum tested dose | 99.3% | – | –
Oc1ccc(Nc2ccnc3cc(Cl)ccc23)cc1CN1CCCC1 [RFM-010-841-8] | 165% | – | – | – | – | 102.22 % of control | 1.41 µM | greater than maximum tested dose | 109% | – | –
CC(CN(C)C)CN1c2ccccc2CCc2ccccc21 (stereo not shown) [RFM-008-630-6] | 145% | – | – | – | – | 106.86 % of control | 1.47 µM | greater than maximum tested dose | – | 114% | –
CC(C(O)c1ccccc1)N(C)CC=C1c2ccccc2CCc2ccccc21 (stereo not shown) [RFM-010-015-2] | 122% | – | – | – | – | 107.49 % of control | 1.96 µM | greater than maximum tested dose | 107% | – | –
CN(C)C(=O)NC1(c2ccccc2)CCN(CCC[C@]2(c3ccc(Cl)c(Cl)c3)CCCN(C(=O)c3ccccc3)C2)CC1 [RFM-003-485-5] | 172% | – | – | – | – | 114.56 % of control | 1.64 µM | greater than maximum tested dose | 109% | – | –
Cc1c(NCCN2CCCC2)cc(C(=O)C(C)(C)C)cc1N1CCN(c2ncnc3[nH]nc(Br)c23)CC1 [RFM-011-974-4] | 124% | – | – | – | – | 103.98 % of control | 1.4 µM | greater than maximum tested dose | 104% | – | –
CCN1[C@@H]2CC[C@H]1C[C@@H](OC(c1ccccc1)c1ccccc1)C2 [RFM-011-925-5] | 136% | – | – | – | – | 108.20 % of control | 1.62 µM | greater than maximum tested dose | 117% | – | –
CCCCC1=Cc2cc3c(cc2C1N1CCN(C)CC1)OCO3 (stereo not shown) [RFM-005-200-6] | 145% | – | – | – | – | 112.43 % of control | 2.5 µM | greater than maximum tested dose | 102% | – | –
OCCN1CCN(CCC=C2c3ccccc3Sc3ccc(C(F)(F)F)cc32)CC1 [RFM-000-079-3] | 145% | – | – | – | – | 104.52 % of control | 1.73 µM | greater than maximum tested dose | – | 105% | –
CN(C)CCOC(c1ccccc1)c1ccc(Br)cc1 (stereo not shown) [RFM-010-846-3] | 157% | – | – | – | – | 102.09 % of control | 2.14 µM | greater than maximum tested dose | 92.2% | – | –
CCCCc1oc2ccc(C(=O)OC(C)C)cc2c1C(=O)c1ccc(CCCN(CCCC)CCCC)cc1 [RFM-009-487-1] | 122% | – | – | – | – | 97.65 % of control | 1.23 µM | greater than maximum tested dose | 87.8% | – | –
Cc1cc(OCCN(C)C)c(C(C)C)cc1OC(=O)CC(C)(C)SN=O [RFM-011-454-5] | 118% | – | – | – | – | 101.17 % of control | 2.37 µM | greater than maximum tested dose | 88.9% | – | –
c1ccc2c(c1)Sc1ccccc1N2CC1CN2CCC1CC2 (stereo not shown) [RFM-000-842-4] | 166% | – | – | – | – | 112.52 % of control | 1.6 µM | greater than maximum tested dose | – | 110% | –
COC(=O)C1=C(C)NC(C)=C(C(=O)OCCCN2CCC(c3ccccc3)(c3ccccc3)CC2)[C@@H]1c1cccc([N+](=O)[O-])c1 [RFM-003-515-4] | 136% | 83.07 % of control | – | greater than maximum tested dose | – | – | 1.39 µM | – | – | – | 92.9%
CN(C)CC(O)COc1ccccc1C1CC2CCC1C2 (stereo not shown) [RFM-012-243-0] | 142% | – | – | – | – | 114.97 % of control | 1.84 µM | greater than maximum tested dose | 95.3% | – | –
COc1cc(Nc2ncc(F)c(Nc3ccc4c(n3)N(COP(=O)(O)O)C(=O)C(C)(C)O4)n2)cc(OC)c1OC [RFM-004-140-7] | 93.7% | – | – | – | – | 134.69 % of control | 4.09 µM | greater than maximum tested dose | – | 86.2% | –

Reference: article PMC10916382, “Repurposing screen identifies novel candidates for broad-spectrum coronavirus antivirals and druggable host targets” (Antimicrobial Agents and Chemotherapy, 2024)
